From patent US20110152314A1, “USE OF TENATOPRAZOLE FOR THE TREATMENT OF GASTROESOPHAGEAL REFLUX DISEASE” (SIDEM PHARMA, priority 2002, published 2011)
Read-outs that look alike come from different tables or passages of the source.

Columns and labels:
Type in all cases: in vivo, human
[1] = Phase I study, pharmacokinetic parameters after oral single dose and daily dose for 7 days; details: for AUC(0-t) / Cmax at 7 days / Tmax at 7 days / half-life at 7 days / Cmax / Tmax / half-life: human, oral; for AUC(0-t): po, read-out: AUC 0-t area under the curve, between time 0 and the last measurable concentration; for Cmax at 7 days / Cmax: read-out: Cmax maximum concentration; for Tmax at 7 days / Tmax: read-out: Tmax time required to attain maximum concentration
Method: The doses tested were 10, 20, 40 and 80 mg of tenatoprazole.
In this table, the abbreviations employed have the following meaning:
Cmax maximum concentration
Tmax time required to attain maximum concentration
T1/2 elimination half-life
AUC0-t area under the curve, between time 0 and the last measurable concentration.
The AUC0-inf value was calculated by extrapolation.

[2] = system: patients suffering from erosive and/or ulcerative type reflux esophagitis; experiment: Open-labeled studies in reflux esophagitis: endoscopic improvement rating
Method: Two open-labeled studies have been conducted in order to evaluate the efficacy and safety of tenatoprazole for gastroesophageal reflux disease. 22 patients in the first study and 24 patients in the second study, of more than 20 years of age, suffering from erosive and/or ulcerative type reflux esophagitis (diagnosed by endoscopy), received tablets containing enteric-coated granules with 10 mg of tenatoprazole.
The tablets were administered orally once a day after breakfast, for a treatment period of 8 weeks, which was continued up to 12 weeks in some cases. Healing was controlled by endoscopic examination 4 weeks and 8 weeks after the first administration, or at the withdrawal from the study, the disease stages were evaluated according to the Savary and Miller classification and the treatment was stopped when healing was confirmed. The condition was evaluated as healed when disappearance of erosion was confirmed.

[3] = system: patients with symptoms of functional dyspepsia; experiment: Clinical treatment of patients with symptoms of functional dyspepsia; parameters: Safety: key: +: moderate; ++: ranging from moderate to highly favorable; +++: highly favorable; details: oral
Description: Some clinical examples are given below, which show the effects of treatment on patients suffering from gastroesophageal reflux or dyspepsia, treated by the oral administration of tenatoprazole.

[4] = in vivo, repeated dose (7 days) 10 mg daily
[5] = in vivo, repeated dose (7 days) 20 mg daily
[6] = in vivo, repeated dose (7 days) 40 mg daily
[7] = in vivo, repeated dose (7 days) 80 mg daily
[8] = 1st study, 4 weeks, 10 mg tablet orally once a day
[9] = 1st study, 8 weeks, 10 mg tablet orally once a day
[10] = 1st study, final, 10 mg tablet orally once a day
[11] = 2nd study, 4 weeks, 10 mg tablet orally once a day
[12] = 2nd study, 8 weeks, 10 mg tablet orally once a day
[13] = 2nd study, 12 weeks, 10 mg tablet orally once a day
[14] = 2nd study, final, 10 mg tablet orally once a day
[15] = patient 25, epigastric discomfort, 12 weeks
[16] = patient 28, distension, 4 weeks
[17] = patient 30, nocturnal heartburn, 8 weeks
[18] = patient 34, early satiety, 8 weeks
[19] = patient 36, epigastric discomfort, 8 weeks
[20] = patient 38, epigastric pain, 8 weeks
[21] = patient 38, sensation of gastric fullness, 8 weeks
[22] = patient 39, epigastric pain, 4 weeks
[23] = patient 42, early satiety, 6 weeks
[24] = patient 45, epigastric pain, 6 weeks

COc1ccc2[nH]c([S+]([O-])Cc3ncc(C)c(OC)c3C)nc2n1 (stereo not shown) [tenatoprazole, 5-methoxy-2-[[(4-methoxy-3,5-dimethyl-2-pyridyl)methyl]sulfinyl]imidazo[4,5-b]pyridine]
AUC(0-t) ([1]; in vivo, 10 mg, repeated dose (7 days) 10 mg daily): 13000 ng·h/mL
AUC(0-t) ([1]; in vivo, 10 mg, single dose 10 mg): 8000 ng·h/mL
AUC(0-t) ([1]; in vivo, 20 mg, repeated dose (7 days) 20 mg daily): 36000 ng·h/mL
AUC(0-t) ([1]; in vivo, 20 mg, single dose 20 mg): 24000 ng·h/mL
AUC(0-t) ([1]; in vivo, 40 mg, repeated dose (7 days) 40 mg daily): 75000 ng·h/mL
AUC(0-t) ([1]; in vivo, 40 mg, single dose 40 mg): 43000 ng·h/mL
AUC(0-t) ([1]; in vivo, 80 mg, repeated dose (7 days) 80 mg daily): 218000 ng·h/mL
AUC(0-t) ([1]; in vivo, 80 mg, single dose 80 mg): 97000 ng·h/mL
Cmax at 7 days [1, 4]: 1600 ng/mL
Tmax at 7 days [1, 4]: 3 h
half-life at 7 days ([1]; in vivo, repeated dose (7 days) 10 mg daily, read-out: T½ elimination half-life (converted)): 5 h
Cmax at 7 days [1, 5]: 3000 ng/mL
Tmax at 7 days [1, 5]: 2 h
half-life at 7 days ([1]; in vivo, repeated dose (7 days) 20 mg daily, read-out: T½ elimination half-life (converted)): 8 h
Cmax at 7 days [1, 6]: 5500 ng/mL
Tmax at 7 days [1, 6]: 3 h
half-life at 7 days ([1]; in vivo, repeated dose (7 days) 40 mg daily, read-out: T½ elimination half-life (converted)): 9 h
Cmax at 7 days [1, 7]: 11800 ng/mL
Tmax at 7 days [1, 7]: 2 h
half-life at 7 days ([1]; in vivo, repeated dose (7 days) 80 mg daily, read-out: T½ elimination half-life (converted)): 9.2 h
Cmax ([1]; in vivo, single dose 10 mg): 900 ng/mL
Tmax ([1]; in vivo, single dose 10 mg): 4 h
half-life ([1]; in vivo, single dose 10 mg, read-out: T½ elimination half-life (converted)): 5 h
Cmax ([1]; in vivo, single dose 20 mg): 2400 ng/mL
Tmax ([1]; in vivo, single dose 20 mg): 4 h
Cmax ([1]; in vivo, single dose 40 mg): 5300 ng/mL
Tmax ([1]; in vivo, single dose 40 mg): 3 h
half-life ([1]; in vivo, single dose 40 mg, read-out: T½ elimination half-life (converted)): 6 h
Cmax ([1]; in vivo, single dose 80 mg): 8300 ng/mL
Tmax ([1]; in vivo, single dose 80 mg): 3 h
half-life ([1]; in vivo, single dose 80 mg, read-out: T½ elimination half-life (converted)): 7 h
half-life ([1]; plasma, after a single dose, depending on the dose (10-80 mg), read-out: mean elimination half-lives): 5 to 6 h
half-life at 7 days ([1]; plasma, after administration for seven days, depending on the dose (10-80 mg), read-out: mean elimination half-lives): 5 to 9.5 h
half-life compared with other proton pump inhibitors (omeprazole, esomeprazole) ([1]; in vivo): some seven times longer
dose dependence of Cmax, AUC0-t and AUC0-inf ([1]; single or repeated administration, 10-80 mg): increased in a linear fashion
Endoscopic improvement rating, patients rated A healed [2, 8]: 20
Endoscopic improvement rating, patients rated B markedly decreased [2, 8]: 1
Endoscopic improvement rating, patients rated C moderately decreased [2, 8]: 0
Endoscopic improvement rating, patients rated D slightly decreased [2, 8]: 0
Endoscopic improvement rating, patients rated E not changed [2, 8]: 1
Endoscopic improvement rating, patients rated F aggravated [2, 8]: 0
Endoscopic improvement rating, patients rated A healed [2, 9]: 21
Endoscopic improvement rating, patients rated B markedly decreased [2, 9]: 0
Endoscopic improvement rating, patients rated C moderately decreased [2, 9]: 0
Endoscopic improvement rating, patients rated D slightly decreased [2, 9]: 0
Endoscopic improvement rating, patients rated E not changed [2, 9]: 1
Endoscopic improvement rating, patients rated F aggravated [2, 9]: 0
Endoscopic improvement rating, patients rated A healed [2, 10]: 21
Endoscopic improvement rating, patients rated B markedly decreased [2, 10]: 0
Endoscopic improvement rating, patients rated C moderately decreased [2, 10]: 0
Endoscopic improvement rating, patients rated D slightly decreased [2, 10]: 0
Endoscopic improvement rating, patients rated E not changed [2, 10]: 1
Endoscopic improvement rating, patients rated F aggravated [2, 10]: 0
Endoscopic improvement rating, patients rated A healed [2, 11]: 23
Endoscopic improvement rating, patients rated B markedly decreased [2, 11]: 2
Endoscopic improvement rating, patients rated C moderately decreased [2, 11]: 0
Endoscopic improvement rating, patients rated D slightly decreased [2, 11]: 0
Endoscopic improvement rating, patients rated E not changed [2, 11]: 0
Endoscopic improvement rating, patients rated F aggravated [2, 11]: 0
Endoscopic improvement rating, patients rated A healed [2, 12]: 24
Endoscopic improvement rating, patients rated B markedly decreased [2, 12]: 0
Endoscopic improvement rating, patients rated C moderately decreased [2, 12]: 0
Endoscopic improvement rating, patients rated D slightly decreased [2, 12]: 0
Endoscopic improvement rating, patients rated E not changed [2, 12]: 0
Endoscopic improvement rating, patients rated F aggravated [2, 12]: 0
Endoscopic improvement rating, patients rated A healed [2, 13]: 24
Endoscopic improvement rating, patients rated B markedly decreased [2, 13]: 0
Endoscopic improvement rating, patients rated C moderately decreased [2, 13]: 0
Endoscopic improvement rating, patients rated D slightly decreased [2, 13]: 0
Endoscopic improvement rating, patients rated E not changed [2, 13]: 0
Endoscopic improvement rating, patients rated F aggravated [2, 13]: 0
Endoscopic improvement rating, patients rated A healed [2, 14]: 24
Endoscopic improvement rating, patients rated B markedly decreased [2, 14]: 0
Endoscopic improvement rating, patients rated C moderately decreased [2, 14]: 0
Endoscopic improvement rating, patients rated D slightly decreased [2, 14]: 0
Endoscopic improvement rating, patients rated E not changed [2, 14]: 0
Endoscopic improvement rating, patients rated F aggravated [2, 14]: 0
patients not healed after 8 weeks treatment ([2]; both studies, 10 mg tablet orally once a day): Only one patient was not healed
efficacy in the treatment of gastroesophageal reflux disease, overall ([2]; both studies, healing obtained with a 4 week treatment): very effective
Evolution of symptom [3, 15]: ++
Safety [3, 15]: +++
Evolution of symptom [3, 16]: +
Safety [3, 16]: +++
Evolution of symptom [3, 17]: +++
Safety [3, 17]: +++
Evolution of symptom [3, 18]: +++
Safety [3, 18]: +++
Evolution of symptom ([3]; patient 35, heartburn, 8 weeks): +++
Safety ([3]; patient 35, heartburn, 8 weeks): +++
Evolution of symptom [3, 19]: +++
Safety [3, 19]: ++
Evolution of symptom [3, 20]: +++
Safety [3, 20]: ++
Evolution of symptom [3, 21]: +++
Safety [3, 21]: +++
Evolution of symptom [3, 22]: ++
Safety [3, 22]: ++
Evolution of symptom ([3]; patient 41, heartburn, 6 weeks): +++
Safety ([3]; patient 41, heartburn, 6 weeks): +++
Evolution of symptom [3, 23]: ++
Safety [3, 23]: +++
Evolution of symptom ([3]; patient 44, nausea, 10 weeks): +++
Safety ([3]; patient 44, nausea, 10 weeks): +++
Evolution of symptom [3, 24]: +++
Safety [3, 24]: ++
Evolution of symptom ([3]; patient 47, nausea, 4 weeks): ++
Safety ([3]; patient 47, nausea, 4 weeks): +++
Evolution of symptom ([3]; patient 49, nausea, 8 weeks): ++
Safety ([3]; patient 49, nausea, 8 weeks): +++
